Laboratory results: patent US20130071936A1, “FRET-BASED ZINC(II) ION INDICATOR” (The Florida State University Research Foundation, Inc., priority 2011, published 2013)
Like-named read-outs stand apart in the source and are kept apart here. Marks after values point to notes of the source that are not given here.

Tests used:
[1] = CH3CN, data taken from Younes et al. J. Org. Chem. 2009, cited from earlier work
[2] = pKa and effect of pH on emission; type: physicochemical
Method: FIG. 10 is a graph depicting the effect of pH on emission spectra of zinc(II) ion chelated FRET donor compound (1) (pH=2.7-10.4).
The titration experiments using zinc(II) ion indicator (4) were also carried out in an aqueous/organic mixed solvent (1:9 MOPS buffer (pH 7.2)/CH3CN). […] (FIG. 9). Comparing to the observations in CH3CN, the fluorescence is rather dim. The loss of fluorescence can be explained by the hydrogen bonding interaction between the protic solvent and the carbonyl groups on NDI, which provides a non-radiative deactivation pathway. See F. Würthner, S. Ahmed, C. Thalacker and T. Debaerdemaeker, Chem. Eur. J., 2002, 8, 4742. […] By extension, the fluorescence of zinc(II) ion indicators (4) and (5) would not be affected by the fluctuations of pH within the physiological range.

[3] = Spectroscopic data (absorption, emission, fluorescence quantum yield) in CH3CN; type: physicochemical; details: for λem / λabs (A band) / λabs (D band) / ∈/10^3 (A band) / ∈/10^3 (D band): complexes: Zn(ClO4)2 10 equiv.
Method: Reagents and solvents were purchased from various commercial sources and used without further purification unless otherwise stated. CH3CN (OmniSolv, EMD) were directly used in titration experiments without purification. All reactions were carried out in oven- or flame-dried glassware. Analytical thin-layer chromatography (TLC) was performed using pre-coated TLC plates with silica gel 60 F254 (EMD) or with aluminum oxide 60 F254 neutral (EMD). Flash column chromatography was performed using 40-63 μm (230-400 mesh ASTM) silica gel (EMD) or alumina (80-200 mesh, pH 9-10, EMD) as the stationary phases. Silica and alumina gel was flame-dried under vacuum to remove absorbed moisture before use. ^1H NMR spectra were recorded at 300 MHz on a Varian Mercury spectrometer. ^13C NMR spectra were recorded at 125 MHz, on a Bruker Avance spectrometer. All chemical shifts were reported in δ units relative to tetramethylsilane. High resolution mass spectra were obtained at the Mass Spectrometry Laboratory at Florida State University. ESI spectra were obtained on a JEOL AccuTOF spectrometer. Spectrophotometric and fluorometric titrations were conducted on a Varian Cary 100 Bio UV-Visible Spectrophotometer and a Varian Cary Eclipse Fluorescence Spectrophotometer, respectively, with a 1-cm standard quartz cell. The fluorescence quantum yield was determined by comparison of the integrated area of corrected emission spectrum with reference of N,N′-di-n-octyl-2,6-di-n-octylamino-1,4,5,8-naphthalenetetracarboxylic acid diimide (φf=0.53 in CH2Cl2) as the reference by the literature method. See Thalacker, C.; Röger, C.; Würthner, F. J. Org.

[4] = tested on: mitochondria of HeLa (S3) cells transfected with mCerulean3 TOMM-20; assay: Colocalization by confocal fluorescence microscopy with mCerulean3 TOMM-20; type: cell-based
Method: FIGS. 13A through 13F are confocal fluorescence images of living HeLa (S3) cells transfected with mCerulean3 TOMM-20 that were incubated with zinc(II) ion indicator (5) (1.8 μM, A-C) and zinc(II) ion indicator (4) (6.0 μM, D-F) for 30 min. FIGS. 13A (zinc(II) ion indicator (5)) and 13D (zinc(II) ion indicator (4)) depict the green channel, λex 405 nm, λem 425-475 nm. FIGS. 13B (zinc(II) ion indicator (5)) and 13E (zinc(II) ion indicator (4)) depict the red channel, λex 543 nm, λem 580-680 nm. FIGS. 13C (zinc(II) ion indicator (5)) and 13F (zinc(II) ion indicator (4)) depict the merged image. Scale bar: 10 μm.
FIGS. 14A through 14F are confocal fluorescence images of live HeLa (S3) cells transfected with mCer3 TOMM20 that were incubated with FRET acceptor compound (3) (9.0 μM, A-C) and FRET acceptor compound (2) (52 μM, D-F) for 30 min. FIGS. 14A (FRET acceptor compound (3)) and 14D (FRET acceptor compound (2)) depict the green channel, λex 405 nm, λem 425-475 nm. FIGS. 14B (FRET acceptor compound (3)) and […] (FRET acceptor compound (2)) depict the red channel, λex 543 nm, λem 580-680 nm. FIGS. 14C (FRET acceptor compound (3)) and […] (FRET acceptor compound (2)) depict the merged image. Scale bar: 10 μm.
The colocalization properties of red-emitting compounds (2-5) were studied using HeLa (S3) cells transfected with mCerulean3 TOMM-20, a cyan fluorescent protein (CFP) fused with a mitochondrial targeting sequence whose emission is shown in the green channel. See FIG. 13A for emission spectrum from cells incubated with TPP-containing zinc(II) ion indicator (5), and see FIG. 13D for emission spectrum from cells incubated with zinc(II) ion indicator (4). […] The overall intracellular fluorescence intensity from zinc(II) ion indicator (4) is low, which is consistent with the observed weak fluorescence of the NDI fluorophore in aqueous solutions.
The localization properties of (2-5) were determined via costaining experiments using mCerulean3 TOMM-20, a mitochondrial-specific fusion of the cyan fluorescent protein (CFP) mCerulean3. mCerulean3 is a bright monomeric FP with an emission maximum of 475 nm. HeLa S3 cells were seeded onto Bioptechs Delta-T dishes 48 h prior to experimentation, then transfected about 24 h prior to loading the indicator using an Effectene Transfection Reagent Kit (Qiagen) and 1 μg of DNA. A 1:1 mixture of Dulbecco's modified Eagle's medium and Ham's F-12 (Invitrogen) supplemented with 12.5% fetal bovine serum was used as the culture medium. On the day of experimentation cells were rinsed twice with media and incubated with indicator 5 (1.8 μM) for 30 min. Prior to imaging cells were again rinsed twice with media, then provided with 1 mL of fresh media.
All cells were imaged using an Olympus Fluoview FV1000 confocal laser scanning microscope with an Olympus PLAPO 60× oil-immersion objective (NA=1.4). During experimentation cells were maintained at 37° C. and 5.0% CO2 using a Bioptechs Delta T4 Culture Dish Controller. Individual cells were imaged sequentially in two channels, using a 543 nm Helium-Neon laser line to excite the indicator and a 405 nm diode laser line to excite the FP. Cells were selected by the quality of FP expression, as the indicators tended to load homogenously into the cells. All data was collected using FluoView Software (Olympus). Laser power and detection settings were optimized for each image to fill LUTs. A pinhole size of 200 μm was used for each image. […]

[5] = tested on: mitochondrial zinc(II) in HeLa (S3) cells; assay: Zinc(II) supplementation experiment, fluorescence microscopy; type: cell-based; details: indicator 1.8 μM, 50 μM ZnCl2, λex 405 nm, λem 580-680 nm
Method: FIGS. 15A and 15B are fluorescence images of HeLa (S3) cells incubated with compound (5) (1.8 μM). FIG. 15A depicts no zinc(II) added, and FIG. 15B depicts fluorescence in the presence of 50 μM ZnCl2. A 405 nm diode laser line was used for excitation. λem 580-680 nm. Scale bar: 10 μm. The DIC images are included in FIGS. 16A and 16B.
FIGS. 16A and 16B are DIC and fluorescence overlay images of HeLa (S3) cells incubated with compound (5) (1.8 μM). FIG. 16A depicts no zinc(II) added, and FIG. 16B depicts emission in the presence of 50 μM ZnCl2. A 405 nm diode laser line was used for excitation. λem 580-680 nm. Scale bar: 10 μm.
See also FIGS. 16A and 16B. […] The addition of zinc(II) ion indicator (5) to the group of very few synthetic indicators that target mitochondrial zinc(II) shall aid the characterization of mitochondrial zinc(II) which is intimately correlated to the chemistry of reactive oxygen species (ROS). See E. Tomat, E. M. Nolan, J. Jaworski and S. J. Lippard, J. Am. Chem. Soc., 2008, 130, 15776; G. Masanta, C. S. Lim, H. J. Kim, J. H. Han, H. M. Kim and B. R. Cho, J. Am. Chem. Soc., 2011, 133, 5698; Y. Qin, P. J. Dittmer, J. G. Park, K. B. Jansen and A. E. Palmer, Proc. Nat. Acad. Sci. USA, 2011, 108, 7351; and S. L. Sensi, D. Ton-That, P. G. Sullivan, E. A. Jonas, K. R. Gee, L. K. Kaczmarek and J. H. Weiss, Proc. Natl. Acad. Sci. U.S.A., 2003, 100, 6157. […]

[6] = λex = 400 nm, Zn(ClO4)2 10 equiv.

Compound	λabs [3] [nm]	∈/10^3 [3]	λem [3] [nm]	φf ([3]; λex = 565 nm)	λabs (A band) [3]	λabs (D band) [3]	∈/10^3 (A band) [3]	∈/10^3 (D band) [3]	further results
COc1ccc(/C=C/c2ccc(-c3ccc(C)cn3)nc2)cc1.[Zn+2] [[Zn(1)]^2+]									φf ([1]; λex = 365 nm): 0.46^a; λabs [1]: 374 nm; λem [1]: 528 nm; ∈/10^3 [1]: 28 10^3 M^-1 cm^-1; change of fluorescence intensity with pH ([2]; range of pH 6.0-9.0, intensity at 460 nm, λex 380 nm): little change
COCCCNc1cc2c3c(c(NCCCCC[P+](c4ccccc4)(c4ccccc4)c4ccccc4)cc4c3c1C(=O)N(CCCOC)C4=O)C(=O)N(CCCOC)C2=O [Compound (3)]	607	23 10^3 M^-1 cm^-1	639	0.48^c					
COCCCN1C(=O)c2cc(NCCOc3ccc(/C=C/c4ccc(-c5ccc(COCCOCCOC)cn5)nc4)cc3)c3c4c(cc(NCCCCC[P+](c5ccccc5)(c5ccccc5)c5ccccc5)c(c24)C1=O)C(=O)N(CCCOC)C3=O.I.[Zn+2] [[Zn(5)]^2+]			633		602 (A) nm	363 (D) nm	21 10^3 M^-1 cm^-1	67 10^3 M^-1 cm^-1	φf [3, 6]: 0.29^e
COCCCN1C(=O)c2cc(NCCOc3ccc(/C=C/c4ccc(-c5ccc(COCCOCCOC)cn5)nc4)cc3)c3c4c(cc(NCCCCC[P+](c5ccccc5)(c5ccccc5)c5ccccc5)c(c24)C1=O)C(=O)N(CCCOC)C3=O.[I-] [Compound (5)]			633	0.28^c	602 (A) nm	347 (D) nm	23 10^3 M^-1 cm^-1	81 10^3 M^-1 cm^-1	colocalization with mitochondrial CFP (mCerulean3 TOMM-20) ([4]; 30 min incubation, (5) 1.8 μM, (4) 6.0 μM, (3) 9.0 μM, (2) 52 μM): localizes selectively in mitochondria; overall intracellular fluorescence intensity ([4]; red channel λex 543 nm, λem 580-680 nm): surprisingly strong intracellular fluorescence; red channel fluorescence upon addition of supplemental zinc(II) in the growth media [5]: increase in intramolecular fluorescence
COCCCNc1cc2c3c(c(NCCCOC)cc4c3c1C(=O)N(CCCOC)C4=O)C(=O)N(CCCOC)C2=O [Compound (2)]	607	22 10^3 M^-1 cm^-1	638	0.51^c					
COc1ccc(/C=C/c2ccc(-c3ccc(C)cn3)nc2)cc1 [(1), 5-(4-methoxystyryl)-5′-methyl-2,2′-bipyridine]	345	34 10^3 M^-1 cm^-1	428						φf ([3]; λex = 365 nm): 0.28^a; pKa [2]: 4.6
COCCCNc1cc2c3c(c(NCCOc4ccc(/C=C/c5ccc(-c6ccc(COCCOCCOC)cn6)nc5)cc4)cc4c3c1C(=O)N(CCCOC)C4=O)C(=O)N(CCCOC)C2=O.[Zn+2] [[Zn(4)]^2+]			633		600 (A) nm	360 (D) nm	21 10^3 M^-1 cm^-1	55 10^3 M^-1 cm^-1	φf [3, 6]: 0.31^e
